Drawing on patent publication US8445430B2, “Cyclic carboxamide compounds and analogues thereof as of hepatitis C virus” (Achillion Pharmaceuticals, Inc., priority 2008, dated 2013), this text covers EC50 for six compounds.

The term EC50 denotes the concentration at which the effect is half-maximal.

Molecules are shown by their SMILES.

The subject of one test is HCV replicon in Huh-7 cells. The test can be described thus: HCV replicon assay (NPT ELISA) for inhibition of HCV replication. The format is cell-based. The note with it: Hepatitis C virus, Huh-7, 72 h, HCV replicon-containing Huh-7 cells, three days incubation. The protocol:
Compounds claimed herein are tested for the ability to inhibit viral replication of the Hepatitis C replicon in cultured cells in which the HCV replicon construct has been incorporated. The HCV replicon system was described by Bartenschlager, et. al (Science, 285, pp. 110-113 (1999)). The replicon system is predictive of in vivo anti-HCV activity; compounds that are active in humans uniformly evidence activity in the replicon assay.
In this assay HCV replicon containing cells are treated with different concentrations of the test compound to ascertain the ability of the test compound to suppress replication of the HCV replicon. As a positive control, HCV replicon-containing cells are treated with different concentrations of interferon alpha, a known inhibitor of HCV replication. The replicon assay system includes Neomycin Phosphotransferase (NPT) as a component of the replicon itself in order to detect the transcription of replicon gene products in the host cell. Cells in which the HCV replicon is actively replicating have high levels of NPT; the level of NPT is proportional to HCV replication. […] The NPT level of each sample is measured using a captured ELISA.
A protocol for testing compounds for the ability to inhibit viral replication of the Hepatitis C replicon cultured cells in which the replicon construct has been incorporated, follows.
The HCV replicon contains, 5′-3′, the HCV-IRES, the neomycin phosphotransferase (neo) gene, the IRES of encephalomyocarditis virus, which directs translation of HCV sequences NS3 to NS5B, and the 3′-NTR. The sequence of the HCV replicon has been deposited in GenBank (Accession no. AJ242652).
The replicon is transfected into Huh-7 cells using standard methods such as electroporation.
The equipment and materials include, but are not limited to, Huh-7 HCV replicon-containing cells, maintenance media (DMEM (Dulbecco's modified Eagle media) supplemented with 10% FBS, L-glutamine, non-essential amino acids, penicillin (100 units/ml), streptomycin (100 micrograms/ml), and 500 micrograms/ml of Geneticin (G418), screening media (DMEM supplemented with 10% FBS, L-glutamine, non-essential amino acids, penicillin (100 units/ml) and streptomycin (100 micrograms/ml)), 96 well tissue culture plates (flat bottom), 96 well plates (U bottom for drug dilution), Interferon alpha for positive control, fixation reagent (such as methanol:acetone), primary antibody (rabbit anti-NPTII), secondary antibody: Eu-N11, and enhancement solution.
HCV replicon-containing cells support high levels of viral RNA replicon replication when their density is suitable. Over-confluency causes decreased viral RNA replication. Therefore, cells must be kept growing in log phase in the presence of 500 micrograms/ml of G418. Generally, cells should be passed twice a week at 1: 4-6 dilution. Cell maintenance is conducted as follows:
HCV replicon-containing cells are examined under a microscope to ensure that cells growing well. Cells are rinsed once with PBS and 2 ml trypsin is added. The cell/trypsin mixture is incubated at 37° C. in a CO2 incubator for 3-5 minutes. After incubation 10 ml of complete media is added to stop the trypsinization reaction. Cells are blown gently, put into a 15 ml tube, and spun at 1200 rpm for 4 minutes. The trypsin/medium solution is removed. Medium (5 ml) is added and the cells are mixed carefully. The cells are counted.
The cells are then seeded onto 96-well plates at a density of 6000-7500 cells/100 microliters/well (6-7.5×10^5 cells/10 ml/plate). The plates are then incubated at 37° C. in a 5% CO2 incubator.
Cells are examined under a microscope approximated 24 hours after seeding and prior to adding drugs. If counting and dilution were performed correctly, cells are 60-70% confluent and nearly all cells should attach and spread evenly in the well.
HCV replicon-containing cells are rinsed with once PBS once; 2 mls of trypsin are then added. Cells are incubated at 37° C. in a 5% CO2 incubator for 3-5 minutes. […]
On the technique in general: A replicon is a self-replicating genome or part of one, used to study replication in cells.
For `COc1ccc2c(O[C@@H]3C[C@H]4C(=O)N[C@@]5(C(=O)NS(=O)(=O)C6CC6)C[C@@H]5/C=C\CCCC(=O)N(C)[C@@H](C(C)(C)C)C(=O)N4C3)cc(-c3ccccc3)nc2c1` [Compound 11, (2R,6S,13aR,14aS,16aS,Z)-6-tert-butyl-N-(cyclopropylsulfonyl)-2-(7-methoxy-2-phenylquinolin-4-yloxy)-7-methyl-5,8,16-trioxo-1,2,3,5,6,7,8,9,10,11,13a,14,14a,15,16,16a-hexadecahydrocyclopropa[n]pyrrolo[2,1-c] [1,4,7]triazacyclopentadecine-14a-carboxamide], the EC50 is not above 10 µM.

Still in this test, the particulars now being: Hepatitis C virus, Huh-7, 72 h, HCV replicon-containing Huh-7 cells, three days incubation; read-out: EC50.
Regarding `COc1ccc2c(O[C@@H]3C[C@H]4C(=O)N[C@@]5(C(=O)NS(=O)(=O)C6CC6)C[C@@H]5/C=C\CCCC(=O)N(C)[C@@H](C(C)(C)C)C(=O)N4C3)cc(-c3ccccc3)nc2c1` [Compound 11, (2R,6S,13aR,14aS,16aS,Z)-6-tert-butyl-N-(cyclopropylsulfonyl)-2-(7-methoxy-2-phenylquinolin-4-yloxy)-7-methyl-5,8,16-trioxo-1,2,3,5,6,7,8,9,10,11,13a,14,14a,15,16,16a-hexadecahydrocyclopropa[n]pyrrolo[2,1-c] [1,4,7]triazacyclopentadecine-14a-carboxamide], the EC50 is more than 10 µM. The same measure, in the same setting: under `COc1ccc2c(O[C@@H]3C[C@H]4C(=O)NC5(C(=O)NS(=O)(=O)C6CC6)CC5/C=C\CCCC(=O)N[C@@H](C(C)(C)C)C(=O)N4C3)cc(-c3ccccc3)nc2c1` (stereo partly drawn) [Compound 4, (2R,6S,16aS,Z)-6-tert-butyl-N-(cyclopropylsulfonyl)-2-(7-methoxy-2-phenylquinolin-4-yloxy)-5,8,16-trioxo-1,2,3,5,6,7,8,9,10,11,13a,14,14a,15,16,16a-hexadecahydrocyclopropa[n]pyrrolo[2,1-c] [1,4,7]triazacyclopentadecine-14a-carboxamide] stands 1 to 10 µM; under `COc1ccc2c(O[C@@H]3C[C@H]4C(=O)N[C@]5(C(=O)NS(=O)(=O)C6CC6)C[C@H]5/C=C\CCCC(=O)N[C@@H](CC(=O)N5CCCC(F)(F)C5)C(=O)N4C3)cc(-c3nc(C(C)C)cs3)nc2c1C` [Compound 17, (2R,6S,14aR,16aS,Z)-N-(cyclopropylsulfonyl)-6-(2-(3,3-difluoropiperidin-1-yl)-2-oxoethyl)-2-(2-(4-isopropylthiazol-2-yl)-7-methoxy-8-methylquinolin-4-yloxy)-5,8,16-trioxo-1,2,3,5,6,7,8,9,10,11,13a,14,14a, 15,16,16a-hexadecahydrocyclopropa[n] pyrrolo[2,1-c][1,4,7]triazacyclopenta-decine-14a-carboxamide], less than 1 µM; under `COC(=O)C[C@@H]1NC(=O)CCC/C=C\[C@@H]2C[C@@]2(C(=O)NS(=O)(=O)C2CC2)NC(=O)[C@@H]2C[C@@H](Oc3cc(-c4ccccc4)nc4cc(OC)ccc34)CN2C1=O` [Compound 12, methyl 2-((2R,6S,14aR,16aS,Z)-14a-(cyclopropylsulfonylcarbamoyl)-2-(7-methoxy-2-phenylquinolin-4-yloxy)-5,8,16-trioxo-1,2,3,5,6,7,8,9,10,11,13a,14,14a,15,16,16a-hexadecahydrocyclopropa[n]pyrrolo[2,1-c] [1,4,7]triazacyclopentadecin-6-yl)acetate], 1 to 10 µM. Still for that read-out and setting: under `COc1ccc2c(O[C@@H]3C[C@H]4C(=O)NC5(C(=O)NS(=O)(=O)C6CC6)CC5/C=C\CCCC(=O)N[C@@H](CC(=O)OC(C)(C)C)C(=O)N4C3)cc(-c3ccccc3)nc2c1` (stereo partly drawn) [Compound 14, tert-butyl 2-((2R,6S,16aS,Z)-14a-(cyclopropylsulfonylcarbamoyl)-2-(7-methoxy-2-phenylquinolin-4-yloxy)-5,8,16-trioxo-1,2,3,5,6,7,8,9,10,11,13a,14,14a,15,16,16a-hexadecahydrocyclopropa[n]pyrrolo [2,1-c][1,4,7]triazacyclopentadecin-6-yl)acetate] stands less than 1 µM; under `C=CCCCC(=O)N[C@@H](C(=O)N1C[C@H](Oc2cc(-c3ccccc3)nc3cc(OC)ccc23)C[C@H]1C(=O)N[C@]1(C(=O)NS(=O)(=O)C2CC2)C[C@H]1C=C)C(C)(C)C` [Compound 7, (2S,4R)-N-((1R,2S)-1-(cyclopropylsulfonylcarbamoyl)-2-vinylcyclopropyl)-1-((R)-2-hex-5-enamido-3,3-dimethylbutanoyl)-4-(7-methoxy-2-phenylquinolin-4-yloxy)pyrrolidine-2-carboxamide], 1 to 10 µM.
